Our source for the IC50 values is patent US8664238B2, “Indenoisoquinolinone derivatives, manufacturing method and medical use thereof” (China Pharmaceutical University, priority 2009, dated 2014).

For the first test, the system named is H460 human lung cancer cells. As to the kind of experiment: Proliferation experiment of H460 human lung cancer cells. In kind it is cell-based.
Conditions: not given
The procedure:
Meanwhile, the proliferation experiment of H460 human lung cancer cells was also conducted.
`CCN(CC)CCCOc1ccc(-n2c3c(c4ccccc4c2=O)C(=O)c2ccccc2-3)cc1` [If, 6-(4-(3-diethylaminopropoxy)phenyl)-5H-indeno[1,2-c]isoquinoline-5,11(6H)-diketone] came in with an IC50 of 0.63 µM.

In a further test the test system is Human breast cancer cells MCF-7. As to the kind of experiment: Proliferation of MCF-7 breast cancer cells (MTT detection method). It is filed as cell-based. As to conditions: MCF-7 cells, 48 h incubation with drug, read-out: IC50, inhibition on the proliferation of MCF-7 breast cancer cells. On the procedure:
The method described in Journal of Medicinal Chemistry. 1997. 40. 1407-1416 has been used and slightly modified. Human breast cancer cells MCF-7, purchased from Nanjing Keygen Biotechnology Inc. MCF-7 cells were incubated in RPMI1640 medium (containing 10% calf serum, 100 U/ml of penicillin and 100 μg/ml of streptomycin) in a 37° C. incubator with 5% CO2. The medium was replaced once about two days and cells were subcultured once every 3-4 days. In the subculturing, the old medium was discarded and the culture was washed twice with D-hanks (for washing off the phenol red in the medium to eliminate the influence of phenol red on the digestion effect of trypsin). Then, a small amount of 0.25% trypsin (25 mg trypsin, 100 ml D-hanks) was added and the contents were paved in the bottle bottom smoothly. […] Trypsin was discarded and the cells were washed with D-hanks, then fresh medium was added and mixed by blowing. The cultures were put into new culture flasks and cultured continuously. After cell count, a small volume of cell suspension was taken and mixed with 0.4% trypan blue in the same volume by blowing with a straw. A little mixture (15 μl-20 μl) was taken and dropped into the interspace between the counting plate and the coverslip without bubbles. […] Dead cells can be stained by trypan blue, while living cells cannot. The counting plate was moved so as to see the counting squares, then unstained cells in four diagonal grids were counted. The cells counted include those on the right line and the top line but not those on the bottom line and the left line. The number of cells/ml=the number of cells in 25% grid×10^4. […] The control group was that in which the anticancer drug was replaced with the same volume of medium and the blank group is 200 μl medium. After incubating for 48 h, 5 mg/ml MTT was added in 20 μl per well and the cultures were further incubated for 4 h. Then, the liquid was suck out carefully and 150 μl of DMSO was added per well. OD values of all wells were measured in 570 nm and the inhibition rate on the cell proliferation and values of IC50 were calculated.
(In general: Tetrazolium dyes change colour on reduction, which living cells bring about.)
Consider `CN(C)CCCOc1ccc(-n2c3c(c4ccccc4c2=O)C(=O)c2ccccc2-3)cc1` [Id, 6-(4-(3-dimethylaminopropoxy)phenyl)-5H-indeno[1,2-c]isoquinoline-5,11(6H)-diketone], for which the IC50 came to 27.9 µM.

For the compound `O=C1c2ccccc2-c2c1c1ccccc1c(=O)n2-c1ccc(OCCN2CCCC2)cc1` [Ii, 6-(4-(2-pyrrolidinylethoxy)phenyl)-5H-indeno[1,2-c]isoquinoline-5,11(6H)-diketone], the IC50 turned out to be 11.3 µM.

`CN1CCN(CCCOc2ccc(-n3c4c(c5ccccc5c3=O)C(=O)c3ccccc3-4)cc2)CC1` [Ih, 6-(4-(3-(4-methylpiperazinyl)propoxy)phenyl)-5H-indeno[1,2-c]isoquinoline-5,11(6H)-diketone]: the IC50 was 5.89 µM.

For the compound `O=C1c2ccccc2-c2c1c1ccccc1c(=O)n2-c1ccc(OCCCN2CCCC2)cc1` [Ij, 6-(4-(3-pyrrolidinylpropoxy)phenyl)-5H-indeno[1,2-c]isoquinoline-5,11(6H)-diketone], the IC50 was 24.7 µM.

Take `O=C1c2ccccc2-c2c1c1ccccc1c(=O)n2-c1ccc(OCCN2CCCCC2)cc1` [Ia, 6-(4-(2-piperidinylethoxy)phenyl)-5H-indeno[1,2-c]isoquinoline-5,11(6H)-diketone]: the IC50 amounted to 9.55 µM.

Turning to `CN1CCN(CCOc2ccc(-n3c4c(c5ccccc5c3=O)C(=O)c3ccccc3-4)cc2)CC1` [Ig, 6-(4-(2-(4-methylpiperazinyl)ethoxy)phenyl)-5H-indeno[1,2-c]isoquinoline-5,11(6H)-diketone], the IC50 stood at 5.82 µM.

For the compound `CCN(CC)CCOc1ccc(-n2c3c(c4ccccc4c2=O)C(=O)c2ccccc2-3)cc1` [Ie, 6-(4-(2-diethylaminoethoxy)phenyl)-5H-indeno[1,2-c]isoquinoline-5,11(6H)-diketone], the IC50 amounted to 7.8 µM.

With `CC(C)N(CCOc1ccc(-n2c3c(c4ccccc4c2=O)C(=O)c2ccccc2-3)cc1)C(C)C` [Ik, 6-(4-(2-diisopropylaminoethoxy)phenyl)-5H-indeno[1,2-c]isoquinoline-5,11(6H)-diketone], the IC50 came out at 79.9 µM.

Turning to `CCN(CC)CCCOc1ccc(-n2c3c(c4ccccc4c2=O)C(=O)c2ccccc2-3)cc1` [If, 6-(4-(3-diethylaminopropoxy)phenyl)-5H-indeno[1,2-c]isoquinoline-5,11(6H)-diketone], the IC50 amounted to 8.52 µM.

On to `O=C1c2ccccc2-c2c1c1ccccc1c(=O)n2-c1ccc(OCCCN2CCCCC2)cc1` [Ib, 6-(4-(3-piperidinylpropoxy)phenyl)-5H-indeno[1,2-c]isoquinoline-5,11(6H)-diketone], for which the IC50 is 10.9 µM.

Take `CN(C)CCOc1ccc(-n2c3c(c4ccccc4c2=O)C(=O)c2ccccc2-3)cc1` [Ic, 6-(4-(2-dimethylaminoethoxy)phenyl)-5H-indeno[1,2-c]isoquinoline-5,11(6H)-diketone]: the IC50 is 2.13 µM.
